From US8349824B2, “Triazolopyridine compounds” (Hoffmann-La Roche Inc., priority 2010, dated 2013)

Tests used:
human PDE10A full length = biological target: T1, human PDE10A full length (Homo sapiens, UniProt Q9Y233); experiment: PDE10A Scintillation Proximity Assay (SPA), human PDE10A full length assay; format: biochemical; conditions: 50 nM cGMP + 50 nM [3H]-cGMP, 20 minutes at room temperature, read-out: PDE10A inhibition IC50
T1 construct: purchased Enzo Life Science, Lausen, Switzerland SE-534
Method in brief: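 IC50 values come from radioactive counts across a range of inhibitor concentrations, using YSi-SPA beads in zinc sulphate as stop reagent. Full-length enzyme hydrolysed 50 nM cGMP with 50 nM [3H]-cGMP for 20 min at room temperature in pH 7.5 HEPES buffer containing 10 mM MgCl2 and 0.05 mg/ml BSA.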

T1 sequence (Q9Y233 1-779 isoform Q9Y233-1): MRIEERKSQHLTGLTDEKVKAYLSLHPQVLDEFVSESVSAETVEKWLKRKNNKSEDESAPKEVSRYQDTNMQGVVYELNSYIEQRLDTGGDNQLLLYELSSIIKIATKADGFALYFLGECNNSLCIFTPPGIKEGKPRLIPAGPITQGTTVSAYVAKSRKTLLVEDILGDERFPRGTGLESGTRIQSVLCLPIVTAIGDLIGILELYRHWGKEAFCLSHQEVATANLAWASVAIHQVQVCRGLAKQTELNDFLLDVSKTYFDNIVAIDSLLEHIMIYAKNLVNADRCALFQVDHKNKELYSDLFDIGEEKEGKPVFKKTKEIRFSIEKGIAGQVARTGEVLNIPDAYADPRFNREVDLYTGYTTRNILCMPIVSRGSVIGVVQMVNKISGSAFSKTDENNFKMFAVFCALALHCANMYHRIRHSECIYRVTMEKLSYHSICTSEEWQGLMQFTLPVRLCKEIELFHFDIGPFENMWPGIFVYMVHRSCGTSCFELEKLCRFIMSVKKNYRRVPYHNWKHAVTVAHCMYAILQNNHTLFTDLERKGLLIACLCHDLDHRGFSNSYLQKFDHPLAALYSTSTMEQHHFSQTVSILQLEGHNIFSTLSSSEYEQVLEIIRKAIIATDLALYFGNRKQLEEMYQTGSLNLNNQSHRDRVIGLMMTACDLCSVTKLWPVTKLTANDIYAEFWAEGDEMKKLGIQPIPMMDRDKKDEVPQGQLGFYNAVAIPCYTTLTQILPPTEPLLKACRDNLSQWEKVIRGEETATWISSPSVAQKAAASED

Row | Compound | IC50 (human PDE10A full length) [nM] | melting point [°C]
1 | CC(C)c1nc2cc(NC(=O)c3c(C(=O)N4CCCC4)cnn3C)ccn2n1 [Example 34, N-(2-isopropyl-[1,2,4]triazolo[1,5-a]pyridin-7-yl)-1-methyl-4-(pyrrolidine-1-carbonyl)-1H-pyrazole-5-carboxamide] | 28.3 | 141 to 143
2 | CN(C)c1nc2cc(NC(=O)c3c(C(=O)N4CCC4)cnn3C)ccn2n1 [Example 35, 4-(Azetidine-1-carbonyl)-N-(2-(dimethylamino)-[1,2,4]triazolo[1,5-a]pyridin-7-yl)-1-methyl-1H-pyrazole-5-carboxamide] | 7.39 | 240 to 241
3 | CN(C)c1nc2cc(NC(=O)c3c(C(=O)N4CCOCC4)cnn3C)ccn2n1 [Example 36, N-(2-(dimethylamino)-[1,2,4]triazolo[1,5-a]pyridin-7-yl)-1-methyl-4-(morpholine-4-carbonyl)-1H-pyrazole-5-carboxamide] | 43.5 | 196 to 198
4 | CN(C)c1nc2cc(NC(=O)c3c(C(=O)N4CCCC4)cnn3C)ccn2n1 [Example 37, N-(2-(dimethylamino)-[1,2,4]triazolo[1,5-a]pyridin-7-yl)-1-methyl-4-(pyrrolidine-1-carbonyl)-1H-pyrazole-5-carboxamide] | 4.46 | 199 to 201
5 | CN(C)c1nc2cc(NC(=O)c3c(C(=O)N4CC(F)C4)cnn3C)ccn2n1 [Example 38, N-(2-(dimethylamino)-[1,2,4]triazolo[1,5-a]pyridin-7-yl)-4-(3-fluoroazetidine-1-carbonyl)-1-methyl-1H-pyrazole-5-carboxamide] | 19.6 | 243 to 244
6 | CCN(CC)C(=O)c1cnn(C)c1C(=O)Nc1ccn2nc(N3CCOCC3)nc2c1 [Example 39, N4,N4-diethyl-1-methyl-N5-(2-morpholino-[1,2,4]triazolo[1,5-a]pyridin-7-yl)-1H-pyrazole-4,5-dicarboxamide] | 22.4 | 165 to 167
7 | CN(C)C(=O)c1cnn(C)c1C(=O)Nc1ccn2nc(N3CCOCC3)nc2c1 [Example 40, N4,N4,1-trimethyl-N5-(2-morpholino-[1,2,4]triazolo[1,5-a]pyridin-7-yl)-1H-pyrazole-4,5-dicarboxamide] | 7.14 | 237 to 240
8 | CCN(C)C(=O)c1cnn(C)c1C(=O)Nc1ccn2nc(N3CCOCC3)nc2c1 [Example 41, N4-ethyl-N4,1-dimethyl-N5-(2-morpholino-[1,2,4]triazolo[1,5-a]pyridin-7-yl)-1H-pyrazole-4,5-dicarboxamide] | 6.68 | 201 to 203
9 | Cn1ncc(C(=O)N2CCC2)c1C(=O)Nc1ccn2nc(-c3cccnc3)nc2c1 [Example 44, 4-(Azetidine-1-carbonyl)-1-methyl-N-(2-(pyridin-3-yl)-[1,2,4]triazolo[1,5-a]pyridin-7-yl)-1H-pyrazole-5-carboxamide] | 5.79 | 253 to 254
10 | Cn1ncc(C(=O)N2CCOCC2)c1C(=O)Nc1ccn2nc(-c3cccnc3)nc2c1 [Example 45, 1-Methyl-4-(morpholine-4-carbonyl)-N-(2-(pyridin-3-yl)-[1,2,4]triazolo[1,5-a]pyridin-7-yl)-1H-pyrazole-5-carboxamide] | 4.29 | 218 to 220
11 | Cn1ncc(C(=O)N2CCCC2)c1C(=O)Nc1ccn2nc(-c3cccnc3)nc2c1 [Example 46, 1-Methyl-N-(2-(pyridin-3-yl)-[1,2,4]triazolo[1,5-a]pyridin-7-yl)-4-(pyrrolidine-1-carbonyl)-1H-pyrazole-5-carboxamide] | 1.17 | 226 to 228
12 | Cn1ncc(C(=O)N2CC(F)C2)c1C(=O)Nc1ccn2nc(-c3cccnc3)nc2c1 [Example 47, 4-(3-Fluoroazetidine-1-carbonyl)-1-methyl-N-(2-(pyridin-3-yl)-[1,2,4]triazolo[1,5-a]pyridin-7-yl)-1H-pyrazole-5-carboxamide] | 1.24 | 247 to 249
13 | CN(C(=O)c1cnn(C)c1C(=O)Nc1ccn2nc(-c3ccccc3)nc2c1)C1CC1 [Example 48, 2-Methyl-2H-pyrazole-3,4-dicarboxylic acid 4-(cyclopropyl-methyl-amide)3-[(2-phenyl-[1,2,4]triazolo[1,5-a]pyridin-7-yl)-amide]] | 0.98 | 156 to 157
14 | CN(CC(F)(F)F)C(=O)c1cnn(C)c1C(=O)Nc1ccn2nc(-c3ccccc3)nc2c1 [Example 49, 2-Methyl-2H-pyrazole-3,4-dicarboxylic acid 4-[methyl-(2,2,2-trifluoro-ethyl)-amide]3-[(2-phenyl-[1,2,4]triazolo[1,5-a]pyridin-7-yl)-amide]] | 0.84 | > 250
15 | CC(C)c1nc2cc(NC(=O)c3c(C(=O)N4CCC4)cnn3C)ccn2n1 [Example 50, 4-(Azetidine-1-carbonyl)-2-methyl-2H-pyrazole-3-carboxylic acid (2-isopropyl-[1,2,4]triazolo[1,5-a]pyridin-7-yl)-amide] | 47.3 | 226 to 227
16 | CC(C)c1nc2cc(NC(=O)c3c(C(=O)N4CC(F)C4)cnn3C)ccn2n1 [Example 51, 4-(3-Fluoro-azetidine-1-carbonyl)-2-methyl-2H-pyrazole-3-carboxylic acid (2-isopropyl-[1,2,4]triazolo[1,5-a]pyridin-7-yl)-amide] | 42 | 226 to 227
17 | CN(C(=O)c1cnn(C)c1C(=O)Nc1ccn2nc(N3CCOCC3)nc2c1)C1CCCC1 [Example 52, N4-cyclopentyl-N4,1-dimethyl-N5-(2-morpholino-[1,2,4]triazolo[1,5-a]pyridin-7-yl)-1H-pyrazole-4,5-dicarboxamide] | 57.4 | 222 to 224
18 | CN(CCF)C(=O)c1cnn(C)c1C(=O)Nc1ccn2nc(-c3cccnc3)nc2c1 [Example 56, 2-Methyl-2H-pyrazole-3,4-dicarboxylic acid 4-[(2-fluoro-ethyl)-methyl-amide]3-[(2-pyridin-3-yl-[1,2,4]triazolo[1,5-a]pyridin-7-yl)-amide]] | 3.69 | 200 to 208
19 | CCN(C)c1nc2cc(NC(=O)c3c(C(=O)N4CCC4)cnn3C)ccn2n1 [Example 58, 4-(Azetidine-1-carbonyl)-2-methyl-2H-pyrazole-3-carboxylic acid [2-(ethyl-methyl-amino)-[1,2,4]triazolo[1,5-a]pyridin-7-yl]-amide] | 7.03 | 229 to 232
20 | CCN(C)c1nc2cc(NC(=O)c3c(C(=O)N4CCOCC4)cnn3C)ccn2n1 [Example 59, 2-Methyl-4-(morpholine-4-carbonyl)-2H-pyrazole-3-carboxylic acid [2-(ethyl-methyl-amino)-[1,2,4]triazolo[1,5-a]pyridin-7-yl]-amide] | 7.97 | 167 to 169
21 | Cn1ncc(C(=O)N2CCC2)c1C(=O)Nc1ccn2nc(N3CCCC3)nc2c1 [Example 60, 4-(Azetidine-1-carbonyl)-2-methyl-2H-pyrazole-3-carboxylic acid (2-pyrrolidin-1-yl-[1,2,4]triazolo[1,5-a]pyridin-7-yl)-amide] | 3.16 | > 250
22 | Cn1ncc(C(=O)N2CCOCC2)c1C(=O)Nc1ccn2nc(N3CCCC3)nc2c1 [Example 61, 2-Methyl-4-(morpholine-4-carbonyl)-2H-pyrazole-3-carboxylic acid (2-pyrrolidin-1-yl-[1,2,4]triazolo[1,5-a]pyridin-7-yl)-amide] | 0.94 | 194 to 197
23 | CCNC(=O)c1nc2cc(NC(=O)c3c(C(=O)N4CCC4)cnn3C)ccn2n1 [Example 63, 7-{[4-(Azetidine-1-carbonyl)-2-methyl-2H-pyrazole-3-carbonyl]-amino}-[1,2,4]triazolo[1,5-a]pyridine-2-carboxylic acid ethylamide] | 93.7 | 217 to 229
24 | COCCNC(=O)c1nc2cc(NC(=O)c3c(C(=O)N4CCC4)cnn3C)ccn2n1 [Example 64, 7-(4-(Azetidine-1-carbonyl)-1-methyl-1H-pyrazole-5-carboxamido)-N-(2-methoxyethyl)-[1,2,4]triazolo[1,5-a]pyridine-2-carboxamide] | 104 | 159 to 161
25 | Cn1ncc(C(=O)N2CCC2)c1C(=O)Nc1ccn2nc(Br)nc2c1 [Example 65, 4-(Azetidine-1-carbonyl)-2-methyl-2H-pyrazole-3-carboxylic acid (2-bromo-[1,2,4]triazolo[1,5-a]pyridin-7-yl)-amide] | 67.4 | > 250
26 | Cn1ncc(C(=O)N2CCC2)c1C(=O)Nc1ccn2nc(-c3ccncc3)nc2c1 [Example 66, 4-(Azetidine-1-carbonyl)-2-methyl-2H-pyrazole-3-carboxylic acid (2-pyridin-4-yl-[1,2,4]triazolo[1,5-a]pyridin-7-yl)-amide] | 1.82 | > 250
27 | Cc1cc(-c2nc3cc(NC(=O)c4c(C(=O)N5CCC5)cnn4C)ccn3n2)ccn1 [Example 67, 4-(Azetidine-1-carbonyl)-2-methyl-2H-pyrazole-3-carboxylic acid [2-(2-methyl-pyridin-4-yl)-[1,2,4]triazolo[1,5-a]pyridin-7-yl]-amide] | 2.06 | 210 to 211
28 | Cc1cncc(-c2nc3cc(NC(=O)c4c(C(=O)N5CCC5)cnn4C)ccn3n2)c1 [Example 68, 4-(Azetidine-1-carbonyl)-2-methyl-2H-pyrazole-3-carboxylic acid [2-(5-methyl-pyridin-3-yl)-[1,2,4]triazolo[1,5-a]pyridin-7-yl]-amide] | 11.2 | 262 to 264
